Measured values from patent US20140234884A1, “FLUOROGENIC SUBSTRATES, METHODS OF MAKING THE SUBSTRATES, AND METHODS OF DETECTING GLYCOSIDASE ACTIVITIES” (UNIVERSITE DE STRASBOURG, priority 2010, published 2014).
“And” between values parts separate entries of the source, which are not always exact repeats. Equal values may be shown once. Read-outs that look alike come from different tables or passages of the source.

Assays:
[1] = tested on: Bacillus subtilis NCIM 2724
Method: (§1) Two control stains are used: one having a cellulase activity (Bacillus subtilis NCIM 2724) the other one not having any activity (Escherichia coli BL21). Both strains are cultivated in an LB medium at 30° C. with stirring (240 rpm) for 18 h. For each strain, the culture is centrifuged (2 500 g, 5 min) and the pellet of cells is washed twice in 5 mL of an LB medium (centrifugation at 2 500 g, 5 min). This pellet is used for inoculation at OD=0.005 a culture in an inducing medium (Dubos medium with 2.5 g/L of carboxymethyl-cellulose) containing the fluorogenic substrate 8 and 2.5 μM (B. subtilis NCIM 2724) or 10 μM (E. coli BL21) of sulforhodamine. Both of these cell suspensions are used with perfluorinated oil in order to produce an emulsion consisting of two populations of droplets each containing one of the described suspensions. The blue and red fluorescences of the droplets are measured individually, on a sample of the emulsion, during production (t=0 h) and reinjection after having incubated the emulsion for 24 h at 30° C.
(§2) The graphs a and b, shown in FIG. 5, are two dimensional histograms of the red (in abscissas, RFU) and blue (in ordinates, RFU) fluorescence intensities measured on the emulsion during its production (a) and its reinjection after incubation fro 24 h at 30° C. (b). The population density is illustrated by a color code varying from pink (1 droplet) to red (>1,000 droplets) according to a logarithmic scale.

Escherichia coli BL21 = conditions: inactive strain
Method: as §1, §2

cellulase = conditions: substrate 0.25 mM in inducing Dubos medium with carboxymethyl-cellulose; 30° C, 24 h; excitation/emission 388/455 nm
Method: (§3) Different control strains are cultivated in an LB medium at 30° C. with stirring (240 rpm) for 18 h. For each strain, the culture is centrifuged (2,500 g, 5 min) and the pellet of cells is washed twice in 5 mL of LB medium (centrifugation at 2,500 g, 5 min). This pellet is used for inoculating at OD=0.005 a culture in an inducing medium (Dubos medium with 2.5 g/L of carboxymethyl-cellulose) containing the fluorogenic substrate (8 or 10) at 0.25 mM. The culture is incubated at 30° C. without stirring for 24 h. Culture supernatant samples are taken at different incubation times in order to be able to follow the occurrence of cellulase or β-glucosidase activities in the culture medium. The occurrence of these activities is followed by measurement of the fluorescence on the culture supernatants in microplates with excitation and emission wavelengths of 388 nm and 455 nm.

β-glucosidase [2] = conditions: substrate 0.25 mM, phosphate buffer pH 7.5, 30° C, 120 minutes
Method: (§4) The enzymatic kinetics are achieved in a microplate on soluble enzymatic extracts (A, B, C and D) rich in activities of the cellulase and xylanase type. These extracts are diluted 10 times (substrate 18, FIG. 1) or 100 times (substrate 10, 12 and 14, FIG. 2) in a 50 mM phosphate buffer, NaCl 150 mM, pH=7.5. A volume of 20 μL of diluted enzymatic extract is added to 20 μL of fluorogenic substrate (10, 12, 14 or 18) at 0.25 mM in a 50 mM phosphate buffer, NaCl 150 mM, pH=7.5. The kinetics are achieved at 30° C. The enzymatic hydrolysis of the different fluorogenic substrate is followed for 120 minutes by measuring the fluorescence with excitation and emission wavelengths of: 339 nm and 452 nm for the substrates 10, 12 and 14; 375 nm and 510 nm for the substrate 18.

β-glucosidase [3] = conditions: substrate 0.25 mM in inducing Dubos medium with carboxymethyl-cellulose; 30° C, 24 h; excitation/emission 388/455 nm
Method: as §3

xylanase = conditions: extracts diluted 100 times; substrate 0.25 mM; phosphate buffer pH 7.5; 30° C; 120 minutes; excitation/emission 339/452 nm
Method: as §4

β-xylosidase = conditions: extracts diluted 100 times; substrate 0.25 mM; phosphate buffer pH 7.5; 30° C; 120 minutes; excitation/emission 339/452 nm
Method: as §4

SMILES: O=c1cc(CS(=O)(=O)[O-])c2cc(F)c(O[C@@H]3O[C@H](CO)[C@@H](O[C@@H]4O[C@H](CO)[C@@H](O)[C@H](O)[C@H]4O)[C@H](O)[C@H]3O)c(F)c2o1.[Na+] [substrate 8, sodium β-D-cellobioside 6,8-difluoro-7-hydroxycoumarin-4-methanesulfonate]
- change of blue fluorescence of the droplets ([1]; after 24 h of incubation at 30° C, active strain): blue fluorescence significantly increased
- detection of an activity of the cellulase type on microorganisms within an emulsion ([1]; emulsion generated by a microfluidic system, 24 h at 30° C): allows detection of an activity of the cellulase type
- % of positive droplets ([1]; reinjection (t = 24 h) after incubation at 30° C, active strain, 2.5 μM sulforhodamine, threshold 37.56 RFU blue fluorescence): 27% and 27.61%
- change of blue fluorescence of the droplets (Escherichia coli BL21; after 24 h of incubation at 30° C): do not have any increase of their blue fluorescence
- % of positive droplets (Escherichia coli BL21; reinjection (t = 24 h) after incubation at 30° C, 10 μM sulforhodamine, threshold 37.56 RFU blue fluorescence): 0.26%
- detection of enzymatic activity of the cellulase type on cultures of microorganisms (cellulase): allow detection of the enzymatic activities

SMILES: O=c1cc(CS(=O)(=O)[O-])c2c(cc(O[C@@H]3O[C@H](CO)[C@@H](O)[C@H](O)[C@H]3O)c3ccccc32)o1.[Na+] [substrate 18, sodium β-D-glucoside 5,6-benzo-7-hydroxycoumarin-4-methanesulfonate]
- detection of enzymatic activity of type β-glucosidase by fluorescence (β-glucosidase [2]; extracts diluted 10 times, excitation/emission 375/510 nm): allow detection of the enzymatic activities

SMILES: O=c1cc(CS(=O)(=O)[O-])c2cc(F)c(O[C@@H]3O[C@H](CO)[C@@H](O)[C@H](O)[C@H]3O)c(F)c2o1.[Na+] [substrate 10, sodium β-D-glucoside 6,8-difluoro-7-hydroxycoumarin-4-methanesulfonate]
- detection of enzymatic activity of the β-glucosidase type on cultures of microorganisms (β-glucosidase [3]): allow detection of the enzymatic activities
- detection of enzymatic activity of type β-glucosidase by fluorescence (β-glucosidase [2]; extracts diluted 100 times, excitation/emission 339/452 nm): allow detection of the enzymatic activities

SMILES: O=c1cc(CS(=O)(=O)[O-])c2cc(F)c(O[C@@H]3OC[C@@H](O[C@@H]4OC[C@@H](O)[C@H](O)[C@H]4O)[C@H](O)[C@H]3O)c(F)c2o1.[Na+] [substrate 14, sodium β-D-xylobioside 6,8-difluoro-7-hydroxycoumarin-4-methanesulfonate]
- detection of enzymatic activity of xylanase type by fluorescence (xylanase): allow detection of the enzymatic activities

SMILES: O=c1cc(CS(=O)(=O)[O-])c2cc(F)c(O[C@@H]3OC[C@@H](O)[C@H](O)[C@H]3O)c(F)c2o1.[Na+] [substrate 12, sodium β-D-xyloside 6,8-difluoro-7-hydroxycoumarin-4-methanesulfonate]
- detection of enzymatic activity of type β-xylosidase by fluorescence (β-xylosidase): allow detection of the enzymatic activities
